Test results from ChEMBL document CHEMBL1770094, “Design, synthesis and antiproliferative activity of novel aminosubstituted benzothiopyranoisoindoles” (Bioorg Med Chem Lett, 2011).

Legend:
HCT-116 = experiment: Cytotoxicity against human HCT116 cells assessed as inhibition of cell proliferation after 72 hrs by MTT assay; assay type: functional, cell-based; conditions: HCT-116, 72 h
[1] = Cytotoxicity against human MES-SA cells assessed as inhibition of cell proliferation after 72 hrs by MTT assay; assay type: functional, cell-based
MES-SA = experiment: Resistant factor, ratio of IC50 for doxorubicin-resistant human MES-SA/Dx5 cells to IC50 for doxorubicin-sensitive human MES-SA cells; assay type: functional
[2] = Cytotoxicity against human MES-SA/Dx5 cells assessed as inhibition of cell proliferation after 72 hrs by MTT assay; assay type: functional, cell-based; conditions: MES-SA/Dx5, 72 h

Row | Compound | IC50 (HCT-116) [nM] | IC50 [1] [nM] | Ratio IC50 (MES-SA) | IC50 [2] [nM]
1 | CN(C)CCn1cc2c([N+](=O)[O-])ccc3c2c1-c1ccccc1S3 | 2100 | 4440 | 0.38 | 1700
2 | CCN(CC)CCn1cc2c([N+](=O)[O-])ccc3c2c1-c1ccccc1S3 | 2140 | 1930 | 2.63 | 5080
3 | O=[N+]([O-])c1ccc2c3c(n(CCN4CCCC4)cc13)-c1ccccc1S2 | 1150 | 1720 | 1.25 | 2150
4 | O=[N+]([O-])c1ccc2c3c(n(CCN4CCCCC4)cc13)-c1ccccc1S2 | 8090 | 16700 | 0.55 | 9160
5 | CN(C)CCn1cc2c([N+](=O)[O-])ccc3c2c1-c1ccccc1S3(=O)=O | 5420 | 3520 | 1.47 | 5180
6 | CCN(CC)CCn1cc2c([N+](=O)[O-])ccc3c2c1-c1ccccc1S3(=O)=O | 6020 | 3980 | 0.66 | 2610
7 | O=[N+]([O-])c1ccc2c3c(n(CCN4CCCC4)cc13)-c1ccccc1S2(=O)=O | 7040 | 2300 | 0.63 | 1450
8 | O=[N+]([O-])c1ccc2c3c(n(CCN4CCCCC4)cc13)-c1ccccc1S2(=O)=O | 5470 | 3980 | 0.64 | 2550
9 | CCN(CC)CCNc1ccc2c3c(n(CCN(CC)CC)cc13)-c1ccccc1S2(=O)=O | 60400 | 68200 |  | > 100000
10 | COc1cccc2c1C(=O)c1c(O)c3c(c(O)c1C2=O)C[C@@](O)(C(=O)CO)C[C@@H]3O[C@H]1C[C@H](N)[C@H](O)[C@H](C)O1 [DOXORUBICIN] | 160 | 30 | 79.93 | 2400
11 | O=C1c2c(O)ccc(O)c2C(=O)c2c(NCCNCCO)ccc(NCCNCCO)c21 [MITOXANTRONE] | 22 | 12 | 6.67 | 80
